In US6936585B2, “Corticotropin releasing factor 2 receptor agonists” (priority 2002, dated 2005):
Ends that are not written are not given here. Peptide text beside a SMILES is read from it.

Key:
CRF2R = molecular target: T1, CRF2R (Homo sapiens, UniProt Q13324); experiment: CRF2R agonist activation (EC50 / Emax), called comparative CRF binding; assay type: cell-based; conditions: for Emax: read-out: CRF2R Emax; for EC50: read-out: CRF2R EC50
T1 sequence (Q13324 1-411): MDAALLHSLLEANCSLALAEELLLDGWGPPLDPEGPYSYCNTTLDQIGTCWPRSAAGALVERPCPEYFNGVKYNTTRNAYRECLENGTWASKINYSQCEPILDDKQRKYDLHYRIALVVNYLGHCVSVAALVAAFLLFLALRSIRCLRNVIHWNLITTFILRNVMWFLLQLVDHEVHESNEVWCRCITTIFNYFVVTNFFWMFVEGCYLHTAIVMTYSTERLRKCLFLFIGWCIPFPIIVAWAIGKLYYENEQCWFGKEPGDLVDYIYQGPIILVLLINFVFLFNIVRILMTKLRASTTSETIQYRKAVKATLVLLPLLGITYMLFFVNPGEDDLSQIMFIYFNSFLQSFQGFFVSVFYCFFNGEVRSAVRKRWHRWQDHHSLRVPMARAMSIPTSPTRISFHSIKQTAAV
Method in brief: (§1)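 Read-out is Gαs-driven cAMP induction, quantified directly in lysates or through CRE-reporter gene expression, after treating CRF1R- or CRF2R-expressing cells with peptide. Vehicle-treated cells serve as the comparison.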

CRF1R = molecular target: T2, CRF1R (Homo sapiens, UniProt P34998); experiment: CRF1R agonist activation (EC50 / Emax), called comparative CRF binding; assay type: cell-based; conditions: for Emax: read-out: CRF1R Emax; for EC50: read-out: CRF1R EC50
T2 sequence (P34998 24-415): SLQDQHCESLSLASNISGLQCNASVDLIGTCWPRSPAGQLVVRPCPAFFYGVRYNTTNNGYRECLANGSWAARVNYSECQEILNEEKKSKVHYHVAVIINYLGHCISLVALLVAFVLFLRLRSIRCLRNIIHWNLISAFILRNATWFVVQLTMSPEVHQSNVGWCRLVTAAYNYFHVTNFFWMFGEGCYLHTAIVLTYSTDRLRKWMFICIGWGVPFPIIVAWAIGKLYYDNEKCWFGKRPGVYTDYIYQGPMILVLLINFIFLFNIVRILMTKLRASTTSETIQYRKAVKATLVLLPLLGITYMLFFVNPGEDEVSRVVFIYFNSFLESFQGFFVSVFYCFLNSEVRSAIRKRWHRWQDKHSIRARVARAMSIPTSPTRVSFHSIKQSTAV
Method in brief: as §1

| Compound | Emax (CRF2R) [%] | Emax (CRF1R) [%] | EC50 (CRF2R) [nM] | EC50 (CRF1R) [nM] |
| --- | --- | --- | --- | --- |
| CC[C@H](C)[C@H](N)C(=O)N[C@H](C(=O)N[C@@H](CC(C)C)C(=O)N[C@@H](CO)C(=O)N[C@@H](CC(C)C)C(=O)N[C@@H](CC(=O)O)C(=O)N[C@H](C(=O)N1CCC[C@H]1C(=O)N[C@H](C(=O)NCC(=O)N[C@@H](CC(C)C)C(=O)N[C@@H](CC(C)C)C(=O)N[C@@H](CCC(N)=O)C(=O)N[C@H](C(=O)N[C@@H](CC(C)C)C(=O)N[C@@H](CC(C)C)C(=O)N[C@@H](CCC(=O)O)C(=O)N[C@@H](CCC(N)=O)C(=O)N[C@@H](CCC(=O)O)C(=O)N[C@@H](CCCNC(=N)N)C(=O)N[C@@H](CCC(N)=O)C(=O)N[C@@H](CCCNC(=N)N)C(=O)N[C@@H](C)C(=O)N[C@@H](C)C(=O)N[C@@H](CCCNC(=N)N)C(=O)N[C@@H](CCC(=O)O)C(=O)N[C@@H](CCC(N)=O)C(=O)N[C@@H](C)C(=O)N[C@H](C(=O)N[C@H](C(=O)N[C@@H](CC(N)=O)C(=O)N[C@@H](C)C(=O)N[C@@H](CCCNC(=N)N)C(=O)N[C@H](C(=O)N[C@@H](CC(C)C)C(=O)N[C@@H](C)C(=O)N[C@@H](CCCNC(=N)N)C(=O)N[C@H](C(N)=O)C(C)C)[C@@H](C)CC)[C@@H](C)O)[C@@H](C)O)[C@@H](C)CC)[C@@H](C)CC)C(C)C)C(C)C [compound 111] (H-IVLSLDVPIGLLQILLEQERQRAAREQATTNARILARV-NH2; N-terminus assumed) | 99 | 9 |  |  |
| CC[C@H](C)[C@H](NC(=O)[C@H](C)NC(=O)[C@H](CC(N)=O)NC(=O)[C@H](CCC(N)=O)NC(=O)[C@H](CCC(=O)O)NC(=O)[C@H](C)NC(=O)[C@H](CCCNC(=N)N)NC(=O)[C@H](CCC(=O)O)NC(=O)[C@H](CCCNC(=N)N)NC(=O)[C@H](CCC(N)=O)NC(=O)[C@H](CO)NC(=O)[C@H](CCC(N)=O)NC(=O)[C@@H](NC(=O)[C@H](CCCNC(=N)N)NC(=O)[C@H](C)NC(=O)[C@H](CC(C)C)NC(=O)[C@H](CCC(=O)O)NC(=O)[C@H](CC(C)C)NC(=O)[C@H](CC(C)C)NC(=O)[C@@H](NC(=O)[C@H](CCCNC(=N)N)NC(=O)[C@H](CC(C)C)NC(=O)[C@H](CC(C)C)NC(=O)[C@H](Cc1c[nH]cn1)NC(=O)[C@H](CC(C)C)NC(=O)[C@@H]1CCCN1C(=O)[C@H](CC(C)C)NC(=O)[C@H](CC(=O)O)NC(=O)[C@@H](NC(=O)[C@H](CO)NC(=O)[C@H](CC(C)C)NC(=O)[C@H](CO)NC(=O)[C@@H]1CCCN1C(=O)[C@H](CC(N)=O)NC(=O)[C@@H](N)CC(=O)O)[C@@H](C)CC)[C@@H](C)O)[C@@H](C)O)C(=O)N[C@H](C(=O)N[C@@H](Cc1ccccc1)C(=O)N[C@@H](C)C(=O)N[C@@H](CO)C(=O)N[C@H](C(N)=O)C(C)C)[C@@H](C)CC [compound 179] (H-DNPSLSIDLPLHLLRTLLELARTQSQRERAEQNAIIFASV-NH2; N-terminus assumed) | 92.5 | 78.9 |  |  |
| SQEPPISLDLTIHLLREVLEMTKADQLAQQAHSNRKLLDIA-NH2 [compound 87] | 14.7 | 5.3 |  |  |
| CC[C@H](C)[C@H](NC(=O)[C@H](Cc1c[nH]cn1)NC(=O)[C@H](C)NC(=O)[C@H](CC(N)=O)NC(=O)[C@H](CCC(N)=O)NC(=O)[C@H](CCC(=O)O)NC(=O)[C@H](C)NC(=O)[C@H](CCCNC(=N)N)NC(=O)[C@H](CCC(=O)O)NC(=O)[C@H](CCCNC(=N)N)NC(=O)[C@H](CCC(N)=O)NC(=O)[C@H](CO)NC(=O)[C@H](CCC(N)=O)NC(=O)[C@@H](NC(=O)[C@H](CCCCN)NC(=O)[C@H](CCC(=O)O)NC(=O)[C@H](CC(C)C)NC(=O)[C@H](CCC(=O)O)NC(=O)[C@H](CC(C)C)NC(=O)[C@H](CC(C)C)NC(=O)[C@@H](NC(=O)[C@H](CCCNC(=N)N)NC(=O)[C@H](CC(C)C)NC(=O)[C@H](CC(C)C)NC(=O)[C@H](CC(C)C)NC(=O)[C@H](CC(C)C)NC(=O)[C@@H]1CCCN1C(=O)[C@H](CC(C)C)NC(=O)[C@H](CC(=O)O)NC(=O)[C@@H](NC(=O)[C@H](CO)NC(=O)[C@H](CC(C)C)NC(=O)[C@H](CO)NC(=O)[C@@H]1CCCN1C(=O)[C@H](CC(N)=O)NC(=O)[C@@H](N)CC(=O)O)[C@@H](C)CC)[C@@H](C)O)[C@@H](C)O)C(=O)N[C@@H](Cc1ccccc1)C(=O)N[C@@H](C)C(=O)N[C@@H](Cc1c[nH]cn1)C(=O)N[C@H](C(N)=O)C(C)C [compound 328] (H-DNPSLSIDLPLLLLRTLLELEKTQSQRERAEQNAHIFAHV-NH2; N-terminus assumed) | 95.7 | 30.7 | 11.7 | ≥ 1000 |
| CC[C@H](C)[C@H](N)C(=O)N[C@H](C(=O)N[C@@H](CC(C)C)C(=O)N[C@@H](CO)C(=O)N[C@@H](CC(C)C)C(=O)N[C@@H](CC(=O)O)C(=O)N[C@H](C(=O)N1CCC[C@H]1C(=O)N[C@H](C(=O)NCC(=O)N[C@@H](CC(C)C)C(=O)N[C@@H](CC(C)C)C(=O)N[C@@H](CCC(N)=O)C(=O)N[C@H](C(=O)N[C@@H](CC(C)C)C(=O)N[C@H](C(=O)N[C@@H](CCC(=O)O)C(=O)N[C@H](C(=O)N[C@@H](CCC(=O)O)C(=O)N[C@@H](CCCCN)C(=O)N[C@@H](CCC(N)=O)C(=O)N[C@@H](CCC(=O)O)C(=O)N[C@@H](CCCCN)C(=O)N[C@@H](CCC(=O)O)C(=O)N[C@@H](CCCCN)C(=O)N[C@@H](CCC(N)=O)C(=O)N[C@@H](CCC(N)=O)C(=O)N[C@@H](C)C(=O)N[C@@H](C)C(=O)N[C@H](C(=O)N[C@H](C(=O)N[C@@H](CC(N)=O)C(=O)N[C@@H](C)C(=O)N[C@@H](CCCNC(=N)N)C(=O)N[C@H](C(=O)N[C@@H](CC(C)C)C(=O)N[C@@H](C)C(=O)N[C@@H](CCCNC(=N)N)C(=O)N[C@H](C(N)=O)C(C)C)[C@@H](C)CC)[C@@H](C)O)[C@@H](C)O)[C@@H](C)CC)[C@@H](C)CC)[C@@H](C)CC)[C@@H](C)CC)C(C)C)C(C)C [compound 168] (H-IVLSLDVPIGLLQILIEIEKQEKEKQQAATTNARILARV-NH2; N-terminus assumed) | 75 | 52 | 4.9 | ≥ 1000 |
| CC[C@H](C)[C@H](NC(=O)[C@H](C)NC(=O)[C@H](CC(N)=O)NC(=O)[C@H](CCC(N)=O)NC(=O)[C@H](CCC(=O)O)NC(=O)[C@H](C)NC(=O)[C@H](CCCNC(=N)N)NC(=O)[C@H](CCC(=O)O)NC(=O)[C@H](CCCNC(=N)N)NC(=O)[C@H](CCC(N)=O)NC(=O)[C@H](CO)NC(=O)[C@H](CCC(N)=O)NC(=O)[C@@H](NC(=O)[C@H](CCCCN)NC(=O)[C@H](CCC(=O)O)NC(=O)[C@H](CC(C)C)NC(=O)[C@H](CCC(=O)O)NC(=O)[C@H](CC(C)C)NC(=O)[C@H](CC(C)C)NC(=O)[C@@H](NC(=O)[C@H](CCCNC(=N)N)NC(=O)[C@H](CC(C)C)NC(=O)[C@H](CC(C)C)NC(=O)[C@H](CC(C)C)NC(=O)[C@H](CC(C)C)NC(=O)[C@@H]1CCCN1C(=O)[C@H](CC(C)C)NC(=O)[C@H](CC(=O)O)NC(=O)[C@@H](NC(=O)[C@H](CO)NC(=O)[C@H](CC(C)C)NC(=O)[C@H](CO)NC(=O)[C@@H]1CCCN1C(=O)[C@H](CC(N)=O)NC(=O)[C@@H](N)CC(=O)O)[C@@H](C)CC)[C@@H](C)O)[C@@H](C)O)C(=O)N[C@H](C(=O)N[C@@H](Cc1ccccc1)C(=O)N[C@@H](C)C(=O)N[C@@H](CO)C(=O)N[C@H](C(N)=O)C(C)C)[C@@H](C)CC [compound 346] (H-DNPSLSIDLPLLLLRTLLELEKTQSQRERAEQNAIIFASV-NH2; N-terminus assumed) | 97.8 | 59 |  |  |
| CC[C@H](C)[C@H](NC(=O)[C@H](C)NC(=O)[C@H](CC(N)=O)NC(=O)[C@H](CCC(N)=O)NC(=O)[C@H](CCC(=O)O)NC(=O)[C@H](C)NC(=O)[C@H](CCCNC(=N)N)NC(=O)[C@H](CCC(=O)O)NC(=O)[C@H](CCCNC(=N)N)NC(=O)[C@H](CCC(N)=O)NC(=O)[C@H](CO)NC(=O)[C@H](CCC(N)=O)NC(=O)[C@@H](NC(=O)[C@H](CCCNC(=N)N)NC(=O)[C@H](C)NC(=O)[C@H](CC(C)C)NC(=O)[C@H](CCC(=O)O)NC(=O)[C@H](CC(C)C)NC(=O)[C@H](CC(C)C)NC(=O)[C@@H](NC(=O)[C@H](CCCNC(=N)N)NC(=O)[C@H](CC(C)C)NC(=O)[C@H](CC(C)C)NC(=O)[C@H](Cc1ccc(O)cc1)NC(=O)[C@H](CC(C)C)NC(=O)[C@@H]1CCCN1C(=O)[C@H](CC(C)C)NC(=O)[C@H](CC(=O)O)NC(=O)[C@@H](NC(=O)[C@H](CO)NC(=O)[C@H](CC(C)C)NC(=O)[C@H](CO)NC(=O)[C@@H]1CCCN1C(=O)[C@H](CC(N)=O)NC(=O)[C@@H](N)CC(=O)O)[C@@H](C)CC)[C@@H](C)O)[C@@H](C)O)C(=O)N[C@H](C(=O)N[C@@H](Cc1ccccc1)C(=O)N[C@@H](C)C(=O)N[C@@H](CO)C(=O)N[C@H](C(N)=O)C(C)C)[C@@H](C)CC [compound 177] (H-DNPSLSIDLPLYLLRTLLELARTQSQRERAEQNAIIFASV-NH2; N-terminus assumed) | 97.7 | 69.2 |  |  |
| SQEPPISLDLPLYLLREVLEMTKADQLAQQAHSNRKLLDIA-NH2 [compound 101] | 6.95 | 7.35 |  |  |
